Measured values from US6703371B1, “Preparations for reducing oxygen consumption during physical efforts” (priority 1999, dated 2004).
Several values for one entry are separate records, joined by “and”; a condition that tells them apart may be missing. Equal entries are not always repeated. Where two headings read alike, the source gives them in different places.

Key:
test subject [1] = experiment: Bicycle ergometer test at 100 W: antagonism between inactive (1st dosage) and active (2nd dosage) substances (Example 1b); type: in vivo, human; settings: for Change in the oxygen consumption after 2nd dosage: relative to after 1st dosage
Method: (§1) 13 to Mar. 6, 1999, with a subject in good physical condition under standard conditions. The subject was required each morning in the fasting state to perform successively (without interruption) at mechanical power output of 100 W, 125 W and 150 W, each lasting 10 minutes (total test duration 30 minutes each time). […] The heat production induced by mechanical exertion was calculated from the changes in the heart rate. An alternative possibility is also to determine it on the basis of the increase in humidity caused by the perspiration (the tests are carried out in a closed room) or reduction in weight (1 g of water=2.26 kJ). […] The values indicated in table la for the “average heart rate” are in each case averages over the 30-minute duration of the test; relative values for the oxygen consumption were established on the basis of the heart rates in a known manner, and the relative values indicated in Table 1a are based on the oxygen consumption on the first day (=100%); the values listed in the column “heat production” in Table 1a give the percentage deviation of the heat production, established on the basis of the perspiration, from the average from all the tests.
(§2) It is known that the oxygen uptake can be determined by measuring the heart rate as a function of the mechanical exertion. This ergometric method is based on establishing the oxygen transport volume through the action of the heart. Since the stroke volume is essentially constant irrespective of the intensity of the mechanical work, and the increased oxygen demand caused by the increase in work results in an increase in the heart rate, the quantity of the transported oxygen can be established by determining the additional heartbeats caused by the work. A 3-stage ergometer as recommended by the World Health Organization (WHO) is used in physiology research institutes and fitness clubs around the world.

test subject [2] = experiment: Bicycle ergometer test at 100 W: active ingredient, sucrose, further active ingredient, amino acid/vitamin product (Example 1c); type: in vivo, human; settings: for Change in oxygen consumption after 2nd dos.: 2nd dosage 2.5 g of sucrose; for Change in oxygen consumption after 2nd dos. / Change in oxygen consumption after 4th dos. / Change in oxygen consumption after 3rd dos.: relative to preceding dosage; for Change in oxygen consumption after 4th dos.: 4th dosage Na glutamate/folic acid/cyanocobalamin/gelatin; for Average heart rate after 1st dos.: 10-minute test at 100 W
test subject [3] = experiment: as above; type: in vivo, human; settings: for Average heart rate after 4th dos.: 4th dosage 100 mg of Na glutamate, 0.3 mg of folic acid, 5 μg of cyanocobalamin in 10 mg of gelatin; for Average heart rate after 2nd dos.: then 2nd dosage 2.5 g of sucrose
Method: as §1, §2

test subject [4] = type: in vivo, human; settings: for change in vivo at 0.2 mg / change in vivo at 1 mg: Homo sapiens, 10 min
[5] = Oxygen-sparing action during physical work, general findings in the description; type: in vivo; settings: result in words; for Oxygen demand after administration: even occasionally increased
test subject [6] = settings: 125 W
Excerpt: Unless otherwise indicated, the tests each took place in the morning in the fasting state, with mechanical power outputs of 100 W, 125 W or 150 W being required in each case from the test subject during one or more 10-minute test periods. A bicycle ergometer from Ergo Fit (Kaiserslautern, Germany) was used for this, and the required work was controlled at 60 pedal revolutions per minute in each case (controlled by a metronome from Seiko, Japan) by means of an eddy current brake. A heart rate computer from Polar Electro (Kempele, Finland) was used for continuous measurement of the heart rate; the atmospheric pressure was measured by an electronic barograph from Altitude Instrumentation (Paris, France) with a resolution of 0.1 mbar; the temperature and relative humidity were measured by an electronic thermohygrometer. The “average heart rates” indicated in the tables are in each case averages of the particular test period. The test subject received a high-carbohydrate diet mainly composed of pasta, and meat of young animals (veal, chicken, fish) in order to ensure an adequate supply of protein, throughout the series of tests. Only 1 test was carried out on each day.
Only 1 test was carried out on each day.

test subject [7] = experiment: Bicycle ergometer test at 100 W with gelatin products (Example 7); type: in vivo, human; settings: for Average heart rate after 1st dos.: 100 W; for Average heart rate before: 10-minute control test at 100 W before the 1st dosage
Method: In tests analogous to Example 1, the tests indicated in Table 7 were carried out with gelatin products which were produced in analogy to Examples 3-5. After a warm-up period of 5 minutes in each case firstly the heartbeats were recorded at a mechanical power output of 100 W during a 10-minute control test, then the 1st dosage was administered and immediately thereafter the heart rate was measured in a 10-minute test period with a power output of 100 W. In the case of a 2nd dosage, this further administration and a second 10-minute test period take place with a power output of 100 W immediately following the first test period.

[8] = 1st dosage 0.2 mg as dilute aqueous solution
[9] = 3rd dosage further 0.2 mg of active ingredient
[10] = 3rd dosage further 0.2 mg of active ingredient after sucrose
[11] = after 0.2 mg of active ingredient
[12] = read-out: Change in the oxygen demand
[13] = read-out: Heat production (deviation from the average of all the tests)
[14] = 1st dosage 1 mg as dilute aqueous solution
[15] = 3rd dosage further 1 mg of active ingredient
[16] = 3rd dosage further 1 mg of active ingredient after sucrose
[17] = after 1 mg of active ingredient

COc1ccc2c3c1O[C@H]1[C@@H](O)C=C[C@H]4[C@@H](C2)N(C)CC[C@@]341 [codeine]
Change in the oxygen consumption after 2nd dosage (test subject [1]; 2nd dosage 0.5 mg, after 0.5 mg of flupentixol, 100 W): −57% | Change in the oxygen consumption after 2nd dosage (test subject [1]; 2nd dosage 0.5 mg, after 1 mg of lorazepam, 100 W): −59% | Change in the oxygen consumption after 2nd dosage (test subject [1]; 2nd dosage 0.5 mg, after 6 mg of amitriptyline + 2.5 mg of chlordiazepoxide, 100 W): −52% | Change in the oxygen consumption after 2nd dosage (test subject [1]; 2nd dosage 0.5 mg, after 7 mg of oxazepam, 100 W): −67% | Change in the oxygen consumption after 2nd dosage (test subject [1]; 2nd dosage 0.5 mg, after 10 mg of chlorprotixen, 100 W): −69% | Average heart rate after 2nd dosage (test subject [1]; 2nd dosage 0.5 mg, after 1st dosage of 0.5 mg of flupentixol, 100 W): 89.7 per minute | Average heart rate after 2nd dosage (test subject [1]; 2nd dosage 0.5 mg, after 1st dosage of 1 mg of lorazepam, 100 W): 91.8 per minute | Average heart rate after 2nd dosage (test subject [1]; 2nd dosage 0.5 mg, after 1st dosage of 6 mg of amitriptyline + 2.5 mg of chlordiazepoxide, 100 W): 86.5 per minute | Average heart rate after 2nd dosage (test subject [1]; 2nd dosage 0.5 mg, after 1st dosage of 7 mg of oxazepam, 100 W): 104.1 per minute | Average heart rate after 2nd dosage (test subject [1]; 2nd dosage 0.5 mg, after 1st dosage of 10 mg of chlorprotixen, 100 W): 90.0 per minute | Change in oxygen consumption after 2nd dos. (test subject [2]; 0.2 mg series): +69% | Change in oxygen consumption after 4th dos. (test subject [2]; 0.2 mg series): −50% | Average heart rate after 1st dos. (test subject [2]; [8]): 73.0 per minute | Change in oxygen consumption after 3rd dos. (test subject [2]; [9]): +2% | Average heart rate after 4th dos. (test subject [3]; 0.2 mg series): 82.9 per minute | Average heart rate after 3rd dos. (test subject [3]; [10]): 108 per minute | Average heart rate after 2nd dos. (test subject [3]; [11]): 107.3 per minute | change in vivo at 0.2 mg (test subject [4]; [12]): -29% | change in vivo at 0.2 mg (test subject [4]; [13]): -27% | Suitability for reducing the oxygen consumption during physical work [5]: suitable

COc1ccc2c(c1)[C@]13CCCC[C@@H]1[C@H](C2)N(C)CC3 [dextromethorphan]
Change in the oxygen consumption after 2nd dosage (test subject [1]; 2nd dosage 0.2 mg, after 6 mg of amitriptyline + 2.5 mg of chlordiazepoxide, 100 W): −81% | Average heart rate after 2nd dosage (test subject [1]; 2nd dosage 0.2 mg, after 1st dosage of 6 mg of amitriptyline + 2.5 mg of chlordiazepoxide, 100 W): 84.8 per minute | Change in oxygen consumption after 2nd dos. (test subject [2]; 0.2 mg series): +69% | Change in oxygen consumption after 4th dos. (test subject [2]; 0.2 mg series): −46% | Average heart rate after 1st dos. (test subject [2]; [8]): 75.8 per minute | Change in oxygen consumption after 3rd dos. (test subject [2]; [9]): +1% | Average heart rate after 4th dos. (test subject [3]; 0.2 mg series): 87.8 per minute | Average heart rate after 3rd dos. (test subject [3]; [10]): 111 per minute | Average heart rate after 2nd dos. (test subject [3]; [11]): 110.4 per minute | change in vivo at 0.2 mg (test subject [4]; [12]): -57% | change in vivo at 0.2 mg (test subject [4]; [13]): -49% | Suitability for reducing the oxygen consumption during physical work [5]: suitable

CN1C(=O)CN=C(c2ccccc2)c2cc(Cl)ccc21 [diazepam]
Average heart rate (test subject [6]; 1 mg, atmospheric pressure 1010.0 mbar): 80 per minute | Average heart rate (test subject [6]; 1 mg, atmospheric pressure 1010.8 mbar): 71 per minute | Average heart rate (test subject [6]; 1 mg, atmospheric pressure 1015.2 mbar): 77 per minute | Average heart rate (test subject [6]; 1 mg, atmospheric pressure 1015.9 mbar): 72 per minute | Average heart rate (test subject [6]; 1 mg, atmospheric pressure 1017.4 mbar): 74 per minute | Average heart rate (test subject [6]; 1 mg, atmospheric pressure 1017.5 mbar): 72 per minute | Average heart rate (test subject [6]; 1 mg, atmospheric pressure 1021.7 mbar): 76 per minute | Average heart rate (test subject [6]; 1 mg, atmospheric pressure 1026.3 mbar): 75 per minute | Average heart rate (test subject [6]; 2 mg, atmospheric pressure 1005.9 mbar): 76 per minute | Average heart rate (test subject [6]; 2 mg, atmospheric pressure 1007.8 mbar): 79 per minute | Effect of low atmospheric pressure on heart rate and oxygen consumption (test subject [6]; result in words): can be compensated | Change in the oxygen consumption after 2nd dosage (test subject [1]; 2nd dosage 1 mg, after 3 mg of bromazepam, 100 W): −65% | Change in the oxygen consumption after 2nd dosage (test subject [1]; 2nd dosage 1 mg, after 7 mg of oxazepam, 100 W): −72% | Change in the oxygen consumption after 2nd dosage (test subject [1]; 2nd dosage 1 mg, after 10 mg of nitrazepam, 100 W): −59% | Average heart rate after 2nd dosage (test subject [1]; 2nd dosage 1 mg, after 1st dosage of 3 mg of bromazepam, 100 W): 97.0 per minute | Average heart rate after 2nd dosage (test subject [1]; 2nd dosage 1 mg, after 1st dosage of 7 mg of oxazepam, 100 W): 89.4 per minute | Average heart rate after 2nd dosage (test subject [1]; 2nd dosage 1 mg, after 1st dosage of 10 mg of nitrazepam, 100 W): 102.1 per minute | Change in oxygen consumption after 2nd dos. (test subject [2]; 1 mg series): +74% | Change in oxygen consumption after 4th dos. (test subject [2]; 1 mg series): −54% | Average heart rate after 1st dos. (test subject [2]; [14]): 74.8 per minute | Change in oxygen consumption after 3rd dos. (test subject [2]; [15]): +2% | Average heart rate after 4th dos. (test subject [3]; 1 mg series): 86.3 per minute | Average heart rate after 3rd dos. (test subject [3]; [16]): 113.1 per minute | Average heart rate after 2nd dos. (test subject [3]; [17]): 111.9 per minute | change in vivo at 1 mg (test subject [4]; [12]): -44% | change in vivo at 1 mg (test subject [4]; [13]): -50% | Suitability for reducing the oxygen consumption during physical work [5]: suitable

CN(C)CCCN1c2ccccc2CCc2ccccc21 [imipramine]
Average heart rate after 1st dosage (test subject [1]; 1st dosage 10 mg in 20 ml of water, 10-minute test at 100 W): 109.5 per minute | change in vivo at 10 mg (test subject [1]; Homo sapiens, 1st dosage 10 mg, 100 W, read-out: Change in the oxygen consumption after 1st dosage): 23% | Average heart rate after 1st dos. (test subject [7]; 1st dosage 10 mg): 100.2 per minute | Average heart rate before (test subject [7]): 87.7 per minute | Oxygen demand after administration [5]: not reduced

Cc1ncc2n1-c1ccc(Cl)cc1C(c1ccccc1F)=NC2 [midazolam]
Change in oxygen consumption after 2nd dos. (test subject [2]; 1 mg series): +70% | Change in oxygen consumption after 4th dos. (test subject [2]; 1 mg series): −58% | Average heart rate after 1st dos. (test subject [2]; [14]): 75.9 per minute | Change in oxygen consumption after 3rd dos. (test subject [2]; [15]): +2% | Average heart rate after 4th dos. (test subject [3]; 1 mg series): 83.2 per minute | Average heart rate after 3rd dos. (test subject [3]; [16]): 112.1 per minute | Average heart rate after 2nd dos. (test subject [3]; [17]): 110.9 per minute | change in vivo at 1 mg (test subject [4]; [12]): -42% | Effect on the heart rate, the oxygen consumption and the heat production (test subject [4]; low dosage, 125 W, result in words): marked reduction in the heart rate, the oxygen consumption and the heat production | Suitability for reducing the oxygen consumption during physical work [5]: suitable

CC(CN(C)C)CN1c2ccccc2CCc2ccccc21 (centres unmarked) [trimipramine]
Average heart rate after 1st dos. (test subject [7]; 1st dosage 12.5 mg): 101.7 per minute and 97.0 per minute | Average heart rate before (test subject [7]): 79.8 per minute and 81.7 per minute | Oxygen demand after administration [5]: not reduced
